This passage reports GI50 and TGI results from PubChem BioAssay (NCI).

Some test systems named below: DU-145 prostate; NCI-H522 lung; SK-MEL-28 melanoma; HT29 colon; HOP-92 NSCLC; SW-620 colon; NCI-H23 lung; TK-10 renal; A498 renal; NCI-H226 lung.
What all share (assay): growth of human tumour cells (NCI), 48 h

“And” between values parts separate entries of the source, which are not always exact repeats. Identical values can stand only once.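 1) Cells in 96-well plates. 2) Compound, 48 h, 5 concentrations. 3) Linear interpolation between surrounding doses. 4) Unreached endpoint = highest concentration. Here, GI50 denotes the concentration required for 50% inhibition of growth. TGI: concentration producing complete growth inhibition.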

`COc1ccc(CNc2nc3cc(N)cc(N)c3nc2-c2ccccc2)cc1`: the GI50 with DU-145 prostate is 21.7 µM; in the assay with NCI-H522 lung it was 10 µM; with SK-MEL-28 melanoma it was 17.3 µM; with HT29 colon it was 24.5 µM; in the assay with HOP-92 NSCLC, 13 µM; with SW-620 colon, 12.8 µM. Further, the GI50 in the assay with NCI-H23 lung was 16.8 µM; in the assay with TK-10 renal, 28.1 µM; in the assay with A498 renal, more than 100 µM; in the assay on NCI-H226 lung, 20.2 µM. Further, the TGI in the assay on DU-145 prostate came out at 58 µM; in the assay with NCI-H522 lung, 22 µM; in the assay on SK-MEL-28 melanoma, 32.3 µM; in the assay on HT29 colon, 60.2 µM; with HOP-92 NSCLC it was 37.2 µM; in the assay with SW-620 colon, 30 µM. In addition, the TGI in the assay on NCI-H23 lung was 34.4 µM; in the assay with TK-10 renal, 57.8 µM; in the assay on A498 renal it was more than 100 µM; in the assay on NCI-H226 lung, 70.5 µM.
As to `S=C(N/N=C(/c1ccccc1)c1ccccn1)N1CCCCCC1`, the GI50 was 1.03 µM in the assay on DU-145 prostate; 1.28 µM in the assay with NCI-H522 lung; 0.863 µM and 0.639 µM in the assay with SK-MEL-28 melanoma; 0.00724 µM in the assay with HT29 colon; less than 0.001 µM with SW-620 colon; 0.00973 µM in the assay with A498 renal. The GI50 in the assay on NCI-H226 lung is 0.02 µM. The TGI is 2.19 µM and 2.15 µM with DU-145 prostate; 3.48 µM and 1.13 µM in the assay on NCI-H522 lung; 2.41 µM and 2.15 µM with SK-MEL-28 melanoma; 3.41 µM and 1.8 µM in the assay with HT29 colon; 1.97 µM with HOP-92 NSCLC; 1.43 µM and 1.68 µM in the assay with SW-620 colon. Further, the TGI in the assay with NCI-H23 lung was 2.11 µM; with TK-10 renal, 1.52 µM and 1.86 µM; in the assay on A498 renal, 0.775 µM and 1.84 µM; with NCI-H226 lung it was 1.19 µM and 1.58 µM.
In the case of `CN(C)CCCNC(=O)c1cncnc1Nc1ccc(OCc2cccc(F)c2)c(Cl)c1`, the GI50 in the assay on DU-145 prostate is 1.76 µM; in the assay on NCI-H522 lung it was 2 µM; in the assay on SK-MEL-28 melanoma it was 1.79 µM; in the assay with HT29 colon, 1.71 µM; in the assay with HOP-92 NSCLC, 1.33 µM; with SW-620 colon, 1.85 µM. Moreover, the GI50 is 1.74 µM in the assay on NCI-H23 lung, 1.84 µM in the assay with TK-10 renal, 1.56 µM with A498 renal and 4.27 µM in the assay with NCI-H226 lung. In addition, the TGI with DU-145 prostate was determined as 3.2 µM; in the assay on NCI-H522 lung it was 3.86 µM; with SK-MEL-28 melanoma it was 3.22 µM; in the assay on HT29 colon it was 3.34 µM; in the assay with HOP-92 NSCLC it was 3.16 µM; in the assay with SW-620 colon it was 3.32 µM. Also, the TGI is 3.28 µM with NCI-H23 lung, 3.48 µM in the assay with TK-10 renal, 2.93 µM in the assay on A498 renal and 19.6 µM in the assay on NCI-H226 lung.
As for `CCCCCCc1nc2nc(Cl)c(Cl)nc2[nH]1`, the GI50 in the assay on DU-145 prostate was 83.2 µM; with NCI-H522 lung, 2.73 µM; with SK-MEL-28 melanoma, more than 100 µM; in the assay with HT29 colon, more than 100 µM; in the assay on HOP-92 NSCLC it was 1.99 µM; in the assay on SW-620 colon, more than 100 µM. In addition, the GI50 was 3.68 µM in the assay on NCI-H23 lung, 9.9 µM in the assay with TK-10 renal, 3.81 µM in the assay on A498 renal and 7.21 µM in the assay on NCI-H226 lung. Moreover, the TGI is more than 100 µM in the assay on DU-145 prostate; 26.8 µM in the assay with NCI-H522 lung; more than 100 µM in the assay on SK-MEL-28 melanoma; more than 100 µM in the assay on HT29 colon; 7.4 µM in the assay with HOP-92 NSCLC; more than 100 µM in the assay with SW-620 colon. In addition, the TGI in the assay with NCI-H23 lung, with TK-10 renal, in the assay on A498 renal and with NCI-H226 lung was more than 100 µM each time.
Regarding `CCCCCCCCCCCCOC1C(C(CC(=O)N2CCN(c3cccc(C(F)(F)F)c3)CC2)NS(=O)(=O)c2cc(Cl)cc(Cl)c2)OC2OC(C)(C)OC21` (configuration not stated), the GI50 in the assay with DU-145 prostate, with NCI-H522 lung, in the assay on SK-MEL-28 melanoma, in the assay with HT29 colon, in the assay with HOP-92 NSCLC and in the assay with SW-620 colon was more than 100 µM throughout. The GI50 in the assay with NCI-H23 lung, in the assay on TK-10 renal, with A498 renal and in the assay with NCI-H226 lung was more than 100 µM each time. In addition, the TGI in the assay on DU-145 prostate, in the assay with NCI-H522 lung, in the assay with SK-MEL-28 melanoma, in the assay with HT29 colon, in the assay with HOP-92 NSCLC and with SW-620 colon was more than 100 µM in each case. Also, the TGI in the assay on NCI-H23 lung, in the assay with TK-10 renal, in the assay with A498 renal and with NCI-H226 lung was more than 100 µM each time.
For the compound `CNC(=O)Oc1cc(C)c(/C=C/c2cncc(C(=O)NC)c2)c(C)c1`, the GI50 was more than 25 µM with DU-145 prostate; more than 23.4 µM with NCI-H522 lung; 18.8 µM in the assay on SK-MEL-28 melanoma; more than 25 µM in the assay on HT29 colon; 9.13 µM in the assay with HOP-92 NSCLC; more than 25 µM in the assay on SW-620 colon. The GI50 in the assay on NCI-H23 lung, with TK-10 renal, with A498 renal and in the assay on NCI-H226 lung was more than 25 µM in each case. The TGI in the assay on DU-145 prostate, with NCI-H522 lung, with SK-MEL-28 melanoma, in the assay with HT29 colon, with HOP-92 NSCLC and with SW-620 colon was more than 25 µM throughout. Besides, the TGI in the assay with NCI-H23 lung, with TK-10 renal, with A498 renal and with NCI-H226 lung was more than 25 µM each time.
